pIC50: −log10 of the molar value.
Target: T1, TrkA receptor (Homo sapiens, UniProt P04629)
T1 construct: host or cells: U2OS (PathHunter, 'TrkA p75' cells)
Assay: DiscoverX PathHunter TrkA functional assay (NGF-stimulated U2OS cells)
Assay type: cell-based
Settings: U2OS cells expressing TrkA-Prolink fusion and Shc1-EA; compound 1 hour, then EC80 NGF 3 hours; luminescence
Experimental: TrkA functional activity was measured using a DiscoverX PathHunter assay. In this assay, U2OS cells are express TrkA receptor as a fusion with the weakly complementing fragment of B-galactosidase, which DiscoverX calls “Prolink (PK)”; additionally, Shcl is fused with a larger fragment, which is called “Enzyme Acceptor (EA)”. Activation of the TrkA receptor, upon NGF addition, results in the kinase domain being phosphorylated, resulting in subsequent recruitment of Shcl-EA protein. That recruitment results in an active B-galactosidase enzyme that is detected by addition of a chemiluminescent substrate.
All reagents were purchased from DiscoverX, except for the receptor agonists (NGF, BDNF, NT3) which were purchased from Peprotech. Cells were expanded and frozen into cryovials (TrkA p75 @passage 13, 1.5×10^7 cells/vial; TrkC p75 @passage 11, 1.5×10^7 cells/vial in InVitrogen Recovery Cell Freezing media), and stored in the vapor phase of liquid nitrogen, and thawed immediately before use. Thawed cells were added to a 384-well plate (BD Falcon 384-well white/clear, TC surface 120 uL assay plates (353963), 20 uL of 0.375e6 cells/mL=>7500 cells/well), and allowed to incubate overnight. Compound (10 mM starting dose: 202.5 nL compound yielding 0.81% DMSO final in total assay volume and starting doses 81 uM) was added the following morning and allowed to incubate on cells for 1 hour. Then, 5 uL EC80 of agonist (NGF for TrkA; BDNF for TrkB; NT3 for TrkC) was added and allowed to incubate for 3 hours at room temperature. DiscoverX PathHunter detection reagent is added (12 uL to plate and components diluted in parts as per kit instructions) and the plate is further incubated for 1 hour in the dark. The plate is read via luminescence on the Perkin Elmer Envision.

T1 sequence (P04629 33-796): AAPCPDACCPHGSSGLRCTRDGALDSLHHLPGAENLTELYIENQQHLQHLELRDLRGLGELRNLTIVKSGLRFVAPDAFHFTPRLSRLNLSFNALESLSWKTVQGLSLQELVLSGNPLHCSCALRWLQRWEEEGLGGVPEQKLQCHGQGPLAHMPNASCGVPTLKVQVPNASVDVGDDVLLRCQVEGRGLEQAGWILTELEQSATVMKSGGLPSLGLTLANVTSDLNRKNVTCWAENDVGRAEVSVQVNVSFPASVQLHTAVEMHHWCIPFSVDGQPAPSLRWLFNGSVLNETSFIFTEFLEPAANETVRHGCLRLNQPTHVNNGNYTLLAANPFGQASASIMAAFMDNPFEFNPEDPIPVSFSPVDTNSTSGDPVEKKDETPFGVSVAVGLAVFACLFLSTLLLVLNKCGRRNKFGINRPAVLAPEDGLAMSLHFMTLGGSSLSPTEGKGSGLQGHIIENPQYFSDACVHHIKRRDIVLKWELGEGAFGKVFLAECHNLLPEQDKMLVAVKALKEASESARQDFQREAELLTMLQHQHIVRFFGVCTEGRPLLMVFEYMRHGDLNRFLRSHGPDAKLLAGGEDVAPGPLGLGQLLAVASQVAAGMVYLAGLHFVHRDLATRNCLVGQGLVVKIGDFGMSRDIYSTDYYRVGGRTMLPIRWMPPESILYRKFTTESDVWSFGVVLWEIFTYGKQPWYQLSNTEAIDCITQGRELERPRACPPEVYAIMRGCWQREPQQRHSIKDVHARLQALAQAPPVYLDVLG

Row | pIC50 | SMILES
1 | 6.49 | O=C(Nc1cccnc1-c1ccccc1F)NC1c2ccccc2-c2ccccc21 [Compound 76, 1-(9H-fluoren-9-yl)-3-[2-(2-fluorophenyl)pyridin-3-yl]urea]
2 | 5.92 | Cc1ccccc1-c1ncccc1NC(=O)NC1c2ccccc2-c2ccccc21 [Compound 77, 1-(9H-fluoren-9-yl)-3-[2-(2-methylphenyl)pyridin-3-yl]urea]
3 | 6.28 | Cc1nc(NC(=O)NC2c3ccccc3-c3ccccc32)n(-c2ccccc2)n1 [Compound 78, 1-(9H-fluoren-9-yl)-3-(3-methyl-1-phenyl-1H-1,2,4-triazol-5-yl)urea]
4 | 7.14 | Cn1ncnc1-c1cccc(NC(=O)NC2c3ccccc3-c3ccccc32)c1 [Compound 79, 1-(9H-fluoren-9-yl)-3-[3-(1-methyl-1H-1,2,4-triazol-5-yl)phenyl]urea]
5 | 6.17 | O=C(Nc1ccnc(-c2ccccc2)c1)NC1c2ccccc2-c2ccccc21 [Compound 80, 1-(9H-fluoren-9-yl)-3-(2-phenylpyridin-4-yl)urea]
6 | 5.41 | Cc1nc(-c2ccccc2)c(NC(=O)NC2c3ccccc3-c3ccccc32)o1 [Compound 81, 1-(9H-fluoren-9-yl)-3-(2-methyl-4-phenyl-1,3-oxazol-5-yl)urea]
7 | 6.59 | Cn1ccnc1-c1cncc(NC(=O)NC2c3ccccc3-c3ccccc32)c1 [Compound 82, 1-(9H-fluoren-9-yl)-3-[5-(1-methyl-1H-imidazol-2-yl)pyridin-3-yl]urea]
8 | 5.52 | O=C(Nc1cccnc1-n1cccn1)NC1c2ccccc2-c2ccccc21 [Compound 83, 1-(9H-fluoren-9-yl)-3-[2-(1H-pyrazol-1-yl)pyridin-3-yl]urea]
9 | 7.33 | O=C(Nc1cc(F)cnc1-c1ccccc1)NC1c2ccccc2-c2ccccc21 [Compound 84, 1-(9H-fluoren-9-yl)-3-(5-fluoro-2-phenylpyridin-3-yl)urea]
10 | 7.00 | Cn1ccnc1-c1cc(NC(=O)NC2c3ccccc3-c3ccccc32)n(C)n1 [Compound 85, 1-(9H-fluoren-9-yl)-3-[1-methyl-3-(1-methyl-1H-imidazol-2-yl)-1H-pyrazol-5-yl]urea]
11 | 6.60 | Cc1nnc(-c2cccc(NC(=O)NC3c4ccccc4-c4ccccc43)c2)n1C [Compound 86, 1-[3-(4,5-dimethyl-4H-1,2,4-triazol-3-yl)phenyl]-3-(9H-fluoren-9-yl)urea]

Further lines, the compound ahead of its results:

Row | SMILES | pIC50
12 | Cc1cnc(-c2cccc(NC(=O)NC3c4ccccc4-c4ccccc43)c2)o1 [Compound 62, 1-(9H-fluoren-9-yl)-3-[3-(5-methyl-1,3-oxazol-2-yl)phenyl]urea] | 5.89
13 | Cn1ccnc1-c1cccc(NC(=O)NC2c3ccccc3-c3ccccc32)c1 [Compound 63, 1-(9H-fluoren-9-yl)-3-[3-(l-methyl-1H-imidazol-2-yl)phenyl]urea] | 7.02
14 | Cn1nnnc1-c1cccc(NC(=O)NC2c3ccccc3-c3ccccc32)c1 [Compound 64, 1-(9H-fluoren-9-yl)-3-[3-(l-methyl-1H-tetrazol-5-yl)phenyl]urea] | 6.48
15 | Cc1nc(-c2cccc(NC(=O)NC3c4ccccc4-c4ccccc43)c2)oc1C [Compound 65, 1-[3-(4,5-dimethyl-1,3-oxazol-2-yl)phenyl]-3-(9H-fluoren-9-yl)urea] | 6.51
16 | O=C(Nc1cccnc1)NC1c2ccccc2-c2ccccc21 [Compound 66, 1-(9H-fluoren-9-yl)-3-pyridin-3-ylurea] | 5.46
17 | O=C(Nc1ncnn1-c1ccccc1)NC1c2ccccc2-c2ccccc21 [Compound 67, 1-(9H-fluoren-9-yl)-3-(1-phenyl-1H-1,2,4-triazol-5-yl)urea] | 5.32
18 | O=C(Nc1c(-c2ccco2)nc2ccccn12)NC1c2ccccc2-c2ccccc21 [Compound 68, 1-(9H-fluoren-9-yl)-3-(2-furan-2-ylimidazo[1,2-a]pyridin-3-yl)urea] | 6.01
19 | O=C(Nc1c(-c2ccncc2)nc2ccccn12)NC1c2ccccc2-c2ccccc21 [Compound 69, 1-(9H-fluoren-9-yl)-3-(2-pyridin-4-ylimidazo[1,2-a]pyridin-3-yl)urea] | 6.11
20 | O=C(Nc1conc1-c1ccccc1)NC1c2ccccc2-c2ccccc21 [Compound 70, 1-(9H-fluoren-9-yl)-3-(3-phenylisoxazol-4-yl)urea] | 5.66
21 | Cc1cnc(-c2ccccc2)c(NC(=O)NC2c3ccccc3-c3ccccc32)c1 [Compound 71, 1-(9H-fluoren-9-yl)-3-(5-methyl-2-phenylpyridin-3-yl)urea] | 6.92
22 | O=C(Nc1cncc(-c2cccnc2)c1)NC1c2ccccc2-c2ccccc21 [Compound 72, 1-(3,3′-bipyridin-5-yl)-3-(9H-fluoren-9-yl)urea] | 5.85
23 | Cn1nccc1-c1cncc(NC(=O)NC2c3ccccc3-c3ccccc32)c1 [Compound 73, 1-(9H-fluoren-9-yl)-3-[5-(1-methyl-1H-pyrazol-5-yl)pyridin-3-yl]urea] | 5.55
24 | Cn1ncnc1-c1cncc(NC(=O)NC2c3ccccc3-c3ccccc32)c1 [Compound 74, 1-(9H-fluoren-9-yl)-3-[5-(1-methyl-1H-1,2,4-triazol-5-yl)pyridin-3-yl]urea] | 6.00
25 | O=C(Nc1cccnc1-c1cccc(F)c1)NC1c2ccccc2-c2ccccc21 [Compound 75, 1-(9H-fluoren-9-yl)-3-[2-(3-fluorophenyl)pyridin-3-yl]urea] | 6.72

From patent publication US9718782B2, “TrkA kinase inhibitors, compositions and methods thereof” (MERCK SHARP & DOHME CORP, priority 2013, dated 2017)
